Measurements reported in US6469063B1, “Inhibition of inflammation via inhibition of COX-2 gene transcription” (City of Hope, priority 1999, dated 2002).
Several values for one entry are separate records, joined by “and”; a condition that tells them apart may be missing. Equal values may be shown once. Entries after “also recorded” stand apart in the source; their conditions may differ.

Key:
COX-1 mRNA = assay: Semi-quantitative RT-PCR of COX-1 gene expression in RIN m5F cells; assay type: cell-based, rat; conditions: same experiments as COX-2 mRNA
Protocol: (§1) RIN m5F cells were cultured to near confluence in RPMi-1640 medium (Life Technologies, Inc., Grand Island, N.Y.) plus 10% FCS plus 1% HEPES and penicillin/streptomycin. Prior to addition of IL-1β the cells were depleted in RPMI-1640 medium plus 0.2% BSA for 24 hours. The cells were gently washed in PBS and depletion medium was added back. At this time CDC (Biomol Research Lab, Inc., Plymouth Meeting, PA) (1-10 μM) was added in certain experiments 60 minutes prior to IL-1β addition. 12-HETE (1-100 nM) and 15-HETE (1-100 nM) (Biomol Research Lab, Inc., Plymouth Meeting, Pa.) were added to certain experiments in 0.1% ethanol. The cells were cultured for an additional 24 hours at which time medium was collected for PGE2 assay. For mRNA experiments, total RNA was extracted from RIN m5F cells 3 hours after the addition of IL-1 β, 12-HETE, or 15-HETE. 12HETE and 15-HETE were stored at −70 C. in the dark and added to cell culture dishes in the dark. Control experiments included the addition of 0.1% ethanol alone to RIN m5F cell cultures.
(§2) RIN m5F cells were cultured as set forth in Example 1, in the presence or absence of IL-1β (0.3 ng/ml), 12-S-HETE (1-100 nM), or 15-S-HETE (1-100 nM) for […]. Total RNA was extracted and semiquantitative RT-PCR was performed using COX-2 specific primers.
Total RNA was extracted from RIN m5F cells with RNA STAT-60 (Tel-Test, Inc., Friendswood, Tex.). RNA (1 μg) was diluted in 12.5 μl DEPC-H20 and reverse transcribed with the 1st-Strand™ cDNA Synthesis Kit (CLONTECH laboratories, Inc., Palo Alto, Calif.), using oligo dT primers, recombinant RNase inhibitor, and MMLV reverse transcriptase to generate template cDNA for PCR amplification. Each PCR reaction was done on RNA from one 100 mm culture dish for the stated experimental conditions. Twenty picomoles of each primer (shown below) was mixed with 1 unit of Taq gold polymerase (Perkin Elmer, Inc.) in 50 μl final volume. […]
PCR products were analyzed by electrophoresis with 1.8% agarose gel. […]

[1] = system: PGE2 production (COX-2 activity); assay: PGE2 production in RIN m5F cells (RIA of conditioned medium); assay type: cell-based, rat; conditions: for PGE2 production in conditioned medium: 24 hours after addition of agent
Protocol: as §1
In addition, PGE2 production was measured under the same conditions, but over a 24 hour period. COX-2 activity was determined by measuring the accumulation of PGE2 in the conditioned media. Cells were cultured in 24 well plates for 24 hours and subject to the experimental conditions described above. PGE2 was measured in conditioned medium using a commercial RIA kit. Statistical analysis of PGE2 levels was performed using the Student's t-test with GraphPad Prism™ software (GraphPad Software, Inc, San Diego, Calif.).

COX-2 mRNA = assay: Semi-quantitative RT-PCR of COX-2 gene expression in RIN m5F cells; assay type: cell-based, rat; conditions: IL-1β 0.3 ng/ml, HETEs 1-100 nM
Protocol: as §1, §2
Total RNA was extracted from RIN m5F cells with RNA STAT-60 (Tel-Test, Inc., Friendswood, Tex.). RNA (1 μg) was diluted in 12.5 μl DEPC-H20 and reverse transcribed with the 1st-Strand™ cDNA Synthesis Kit (CLONTECH laboratories, Inc., Palo Alto, Calif.), using oligo dT primers, recombinant RNase inhibitor, and MMLV reverse transcriptase to generate template cDNA for PCR amplification. Each PCR reaction was done on RNA from one 100 mm culture dish for the stated experimental conditions. Twenty picomoles of each primer (shown below) was mixed with 1 unit of Taq gold polymerase (Perkin Elmer, Inc.) in 50 μl final volume. Samples were amplified with an initial 45 second denaturation step at 94° C. followed by 25 cycles of 45 seconds at 60° C., and 25 cycles of 2 minutes at 72° C.. The last cycle was extended for an additional 7 minutes at 72° C. PCR cycling was done with a Gene Amp PCR System 2400 (Perkin Elmer/Cetus Corp., Norwalk, Conn.). DNA primers were synthesized in the DNA/RNA Core Chemistry Laboratory at City of Hope National Medical Center. The sequences of the primers are shown below.
PCR products were analyzed by electrophoresis with 1.8% agarose gel. The DNA was transferred to nylon membranes and hybridized sequentially to ^32P-labeled probes for COX-1, COX-2, and GAPDH using a random Primed DNA labeling kit (Boehringer Mannheim). GAPDH was used as an internal control. Hybridization and autoradiography were performed according to previously published methods.

COX-2 protein [2] = assay: Western immunoblot of COX-2 protein expression in RIN m5F cells; assay type: cell-based, rat; conditions: 12-HETE 1-10 nM, 24 hours; for increase in COX-2 protein: IL-1β 0.3 ng/ml
Protocol: as §1
This Example investigates the mechanism(s) of this resistance. RIN m5F cells, cultured as set forth in Example 1, were stimulated with IL-1β and 12-HETE and total protein extracts were used for Western immunoblotting with an anti-COX-2 antibody.
The RIN m5F cells (−300 per blot) were lysed in a 1% Triton-0.1% SDS buffer in normal saline (pH 7.4) with 10 mM HEPES plus 1 mM EDTA and standard protease inhibitors. Cell lysates were centrifuged at 14,000×9 for 10 minutes and a modified BCA protein assay was performed. Protein aliquots (50 μg per sample) were treated with Laemmeli sample buffer and then heated to 100° C. for 5 minutes. Proteins were separated on 10% SDS-PAGE and transferred to polyvinylidene difluoride membranes (Immobilon-P) in 10 mM CAPS buffer, 10% methanol at pH 11. The immunoblots were blocked overnight in 5% nonfat dried milk in Tris buffer containing 0.1% Tween-20. […]

prostaglandin synthesis = conditions: 10-100 mg/kg; cited from earlier work
COX-2 gene transcription = conditions: higher concentrations; cited from earlier work
COX-2 protein [3] = assay: Western immunoblot of COX-2 protein in cultured intact porcine pancreatic islets; assay type: cell-based; conditions: 24 hours
Protocol: The RIN m5F cells (−300 per blot) were lysed in a 1% Triton-0.1% SDS buffer in normal saline (pH 7.4) with 10 mM HEPES plus 1 mM EDTA and standard protease inhibitors. Cell lysates were centrifuged at 14,000×9 for 10 minutes and a modified BCA protein assay was performed. Protein aliquots (50 μg per sample) were treated with Laemmeli sample buffer and then heated to 100° C. for 5 minutes. Proteins were separated on 10% SDS-PAGE and transferred to polyvinylidene difluoride membranes (Immobilon-P) in 10 mM CAPS buffer, 10% methanol at pH 11. The immunoblots were blocked overnight in 5% nonfat dried milk in Tris buffer containing 0.1% Tween-20. The blots were incubated for 2 hours at room temperature with anti COX-2 antibodies (Cayman Chemical Co., Ann Arbor, Mich.) diluted 1:2000 in the same Tris buffer without nonfat dried milk. The blots were washed and then incubated with horseradish peroxidase conjugated secondary antibodies at 1:2000 dilution. The protein bands were visualized with enhanced chemiluminescence reagents using X-AR film.
Next, Western immunoblots were performed on protein extracts from porcine islets treated in a similar fashion with IL-1β and lysed as set forth about for RIN m5F cells. Because of the concern that 12-HETE would not permeate the islet mass, the 12-LO inhibitor CDC (1 μM) was used instead with or without the addition of IL-1β, in order to determine the role of the 12-LO pathway on COX-2 protein expression.

5-lipoxygenase = target: T1, 5-lipoxygenase (Homo sapiens, UniProt P09917); conditions: cited from earlier work
T1 sequence (P09917 1-674): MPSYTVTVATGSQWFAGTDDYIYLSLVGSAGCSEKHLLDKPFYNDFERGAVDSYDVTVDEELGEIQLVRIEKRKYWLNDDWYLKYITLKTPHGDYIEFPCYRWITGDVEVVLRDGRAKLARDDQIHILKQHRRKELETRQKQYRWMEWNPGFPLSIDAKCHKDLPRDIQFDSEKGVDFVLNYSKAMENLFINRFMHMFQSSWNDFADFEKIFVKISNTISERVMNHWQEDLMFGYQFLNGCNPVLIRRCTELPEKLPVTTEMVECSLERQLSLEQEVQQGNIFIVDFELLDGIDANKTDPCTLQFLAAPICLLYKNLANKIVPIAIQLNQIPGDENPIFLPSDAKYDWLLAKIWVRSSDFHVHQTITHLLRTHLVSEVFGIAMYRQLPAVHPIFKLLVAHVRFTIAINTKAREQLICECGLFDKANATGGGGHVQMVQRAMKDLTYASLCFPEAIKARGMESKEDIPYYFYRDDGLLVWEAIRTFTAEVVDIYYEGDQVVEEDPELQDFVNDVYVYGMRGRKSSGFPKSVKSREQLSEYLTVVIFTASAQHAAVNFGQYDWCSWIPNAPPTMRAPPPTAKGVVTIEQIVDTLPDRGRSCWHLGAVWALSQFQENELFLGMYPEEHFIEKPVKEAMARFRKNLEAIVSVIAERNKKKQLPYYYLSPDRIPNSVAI

12-lipoxygenase = conditions: cited from earlier work
15-lipoxygenase = conditions: cited from earlier work
HIT cells = HIT cells treated with IL-1β for 24 hours; cited from earlier work
[4] = system: leukocyte influx and prostaglandin synthesis; conditions: oral, 3 mg/kg, over a 24 hour period; cited from earlier work
PGE2 production = PGE2 production in islets from C57BL/6 and 12-LO knockout mice; assay type: cell-based, mouse; conditions: for PGE2 generated by IL-1β stimulated islets: 24 hours
Protocol: Generation of 12-LO knockout has been previously described. All animal studies were performed in accordance with guidelines set forth by the Research Animal Care Committee of City of Hope National Medical Center. Islet isolation and culturing techniques have been detailed previously. Briefly, mouse pancreas was removed, minced, and poured into a siliconized 25 ml Ehrlenmeyer flask with Type Xl collagenase solution (Sigma Chemical Co, St. Louis, Mo.). The pancreatic digest was incubated in a shaker-type water bath at 37 C. for 6-10 minutes. The digest was centrifuged, poured into a black back petri dish, and islets were picked by hand under a microscope. The islets were aliquoted into sterile 6-well plates (Sarstedt, Newton, N.C.) and cultured in RPMI 1640 medium containing 11 mM glucose and supplemented with 10% FCS and 1% HEPES. Typically, we isolate −75-100 islets per mouse. For PGE2 experiments, 100 islets per well in 300 μl RPMI medium were cultured overnight prior to additions. The following morning the medium was changed to RPMI 1640 medium plus 0.2% BSA and the islets were allowed to equilibrate for one hour. Then, IL-1β (R & D Systems, Minneapolis, Minn.) was added to the appropriate experiments. All islet experiments were run in triplicate and repeated three times for reproducibility.
Isolated islets (100 per experiment) were brought to culture and incubated overnight as described. After approximately 18 hours IL-1β was added to the medium and the islets were incubated for an additional 24 hours. PGE2 production was measured as set forth in Example 3.

CCCCC/C=C\C[C@@H](O)/C=C/C=C\C/C=C\CCCC(=O)O [12-HETE, 12-hydroxyeicosatetraenoic acid, reference compound]
COX-1 mRNA expression / gene transcription (COX-1 mRNA): No appreciable difference; also recorded: neither IL-1β,nor 12-HETE stimulated
increase in PGE2 relative to 15-HETE ([1]; 24 hours): 10 fold
PGE2 production in conditioned medium [1]: ~1250 pg/mL
increase in COX-2 mRNA expression (COX-2 mRNA): 3 fold
COX-2 protein stimulation compared to IL-1β (0.3 ng/ml) (COX-2 protein [2]): equipotent
increase in COX-2 protein (COX-2 protein [2]): 3 fold

CCCCC[C@H](O)/C=C/C=C\C/C=C\C/C=C\CCCC(=O)O [15-HETE, 15-hydroxyeicosatetraenoic acid, reference compound]
PGE2 production in conditioned medium [1]: ~125 pg/mL
increase in COX-2 mRNA expression (COX-2 mRNA): 1.5 fold

O=C(/C=C/c1ccc(O)c(O)c1)OCCc1ccccc1 [CAPE, caffeic acid phenethyl ester]
prostaglandin synthesis in rat carrageenan air pouch (prostaglandin synthesis): inhibited prostaglandin synthesis in a dose-dependent fashion
concentration inhibiting COX-2 gene transcription (COX-2 gene transcription): 35 to 70 µM

N#CC(=Cc1ccc(O)c(O)c1)C(=O)OCC=Cc1ccccc1 [CDC, cinnamamyl-3,4-dihydroxy-α-cyanocinnamate]
inhibition of IL-1β induced PGE2 production ([1]; CDC 1 μM (1-10 μM)): completely inhibited; also recorded: statistically significant decrease; also recorded: statistically significant inhibition; also recorded: dose-dependent
IL-1β induced PGE2 production in presence of CDC ([1]; CDC 1 μM added 60 minutes before IL-1β, 24 hours): 169+5 pg/ml
effect on IL-1β stimulated increase in COX-2 protein (COX-2 protein [3]; CDC 1 μM plus IL-1β): completely inhibited; also recorded: completely eliminated this response
effect on basal COX-2 protein levels (COX-2 protein [3]; CDC alone): did not appreciably affect
IC50 (5-lipoxygenase): 3.33 µM
IC50 (12-lipoxygenase): 63 nM
IC50 (15-lipoxygenase): 1890 nM

CS(=O)(=O)Nc1ccc([N+](=O)[O-])cc1OC1CCCCC1 [NS-398]
glucose-stimulated insulin secretion (HIT cells): partially restored

CS(=O)(=O)Nc1ccc(Oc2ccc(F)cc2)s1 [RWJ63556]
inhibition of leukocyte influx [4]: significant sustained inhibition
inhibition of prostaglandin synthesis [4]: significant sustained inhibition

interleukin-1β [IL-1β]
COX-1 mRNA expression / gene transcription (COX-1 mRNA): neither IL-1β,nor 12-HETE stimulated
COX-1 mRNA expression / gene transcription (COX-1 mRNA; listed as IL-1 β): No appreciable difference
PGE2 production in conditioned medium [1]: ~500 pg/ml and 388+27 pg/ml
increase in COX-2 mRNA expression (COX-2 mRNA): 2 fold
increase in COX-2 mRNA expression (COX-2 mRNA; listed as IL-1 β): 2 fold and 1.5 fold
increase in COX-2 protein (COX-2 protein [2]): 2.5 fold
increase in COX-2 protein (COX-2 protein [3]; IL-1β 0.3 ng/ml): 3 fold
PGE2 production upon stimulation with IL-1β (words) (PGE2 production; 12-LO knockout mouse islets): fail to stimulate prostaglandin E2 production
PGE2 generated by IL-1β stimulated islets (PGE2 production; 12-LO knockout mouse islets): 78+15 pg/ml
PGE2 production upon stimulation with IL-1β (words) (PGE2 production; 12-LO knockout mouse islets, listed as IL-1 β): no appreciable PGE2 production
increase in PGE2 production with IL-1β stimulation (PGE2 production; C57BL/6 mouse islets): 8 fold and 7 fold
PGE2 generated by IL-1β stimulated islets (PGE2 production; C57BL/6 mouse islets): 5405+1012 pg/ml
